US6881732B2, “Neuroprotection and cardioprotection afforded by chelators with high affinity and specificity for cations of first transition series elements” (Chelator LLC, priority 2002, dated 2005)

Tests used:
[1] = test system: Fenton Reactions (iron catalyzed Haber-Weiss pathways); test: iron-catalyzed free radical generation, superoxide-driven Fenton reaction; format: biochemical; details: chelator as Fe(III) complex
Method: Employing published methods, as described in “Quantitative Effects of Iron Chelators on Hydroxyl Radical Production by the Superoxide-Driven Fenton Reaction,” J. B. Smith, J. C. Cusumano, C. F. Babbs, Free Rad. Res. Comms. 1990, Vol. 8, No. 2, 101-106, the ability of Fe(III) complexed to N,N′,N″-tri(dihydroxy-phosphoryl methyl)-1,4,7-triazacyclononane to support Fenton reactions was evaluated.

[2] = test system: HFF (human foreskin fibroblasts); test: toxicity toward nonproliferating mammalian cells in vitro; format: cell-based; details: 0.3 mM; mature, nonreplicating HFF cultures in maintenance media; five-day period of observation
From the text: This example illustrates the relatively low toxicity of a representative example of the chelators of this invention toward nonproliferating mammalian cells in vitro.

[3] = acute in vivo toxicity, single intravenous dose in mice; details: mouse, in vivo, iv
Method: (§1) This example illustrates the low in vivo toxicity of a representative example of the chelators of this invention upon administration to mice.
(§2) This in vivo LD50 toxicity dose results in an instantaneous in vivo concentration which is orders of magnitude greater than the dose of this agent which inhibits mammalian cell replication in vitro (0.009 mM/L).

[4] = test system: mice; test: as above; details: 3.0 mM/kg single intravenous dose; sodium salt
Method: as §1, §2

[5] = test system: mammalian cell replication; test: inhibition of mammalian cell replication in vitro; format: cell-based
Method: as §2

[6] = test system: Sprague Dawley rats; test: subacute toxicity, repeated intravenous doses in rats; format: in vivo, rat
From the text: Ten male Sprague Dawley rats 29 days old and weighing between 73.4 and 87.8 grams at the beginning of the experiment were randomized, employing the block stratificaton method, into two groups consisting of five rats each. On each of days 1, 2, 3, 6, 7, 8, 9, 10, 13 and 14 of the experiment one set of rats received an intravenous dose of N,N′,N″-tri(dihydroxyphosphoryl methyl)-1,4,7-triazacyclononane (Example 1C in U.S. Pat. No. 5,236,695) equal to 0.05 millimoles per kg of initial body weight (experimental group) while the other group received an equivalent volume of normal saline solution. The weights of the animals were recorded three times per week and the animals were sacrificed on the 28th day, major organs removed and weighed and tissues removed for microscopic examination.

[7] = test system: unanesthetized rabbit; test: ventricular overdrive pacing (VOP) induced ischemia in unanesthetized rabbit; format: in vivo; details: for cardioprotection with regard to cardiac performance parameters: 10 min prior to VOP
Method: In the in vivo unanesthetized rabbit VOP-induced myocardial ischemia model, intravenous doses of 0.032 mmole/kg and 0.096 mmole/kg of the test compound were cardioprotective with regard to cardiac performance parameters when administered 10 min prior to VOP. […] The test compound had no affect on any cardiac performance parameters in these experiments prior to VOP-induced ischemia.

[8] = test system: anesthetized rabbit; test: rabbit myocardial infarction model (30 min LCAO, reperfusion ~24 hours); format: in vivo; details: for cardioprotection (volume of infarcted myocardium vs. controls): administered beginning after 15 minutes of LCAO
Method: Cardioprotection by the test compound in ischemia-reperfusion injury was evaluated in a rabbit myocardial infarction model employing 30 minutes of reversible ligature occlusion of the left anterior descending coronary artery (LCAO) followed by reperfusion for ˜24 hours prior to sacrifice.

[9] = test system: rats; test: rat stroke model, transient occlusion of the middle cerebral artery (TMCAO); format: in vivo; details: for Infarct Volumes: 48 hours after surgery; for Infarct Volumes / Motor Score: 1 Hour / Motor Score: 24 Hours / Motor Score: 48 Hours: mean ± SD
[10] = test system: ex vivo working rat heart; test: ex vivo working rat heart model of global ischemia
[11] = Set I: three IV doses of 0.032 mmoles/kg at 10 min prior to, 60 min after MCA occlusion and at reperfusion
[12] = Set II: three IV doses of 0.032 mmoles/kg at 60, 120 (reperfusion) and 180 min after MCA occlusion
[13] = Set III: single 0.032 mmoles/kg IV dose after 60 minutes of MCA occlusion
[14] = Set IV: single 0.032 mmoles/kg IV dose after 90 minutes of MCA occlusion

For `O=C(O)CN(CCN(CC(=O)O)CC(=O)O)CC(=O)O` [EDTA, ethylene diamine tetra acetic acid, reference compound], the “ability of Fe(III) complexed to the chelator to support Fenton reactions (hydroxyl radical formation)” value [1] was “supported the Fenton reaction yielding hydroxyl radicals”.

In the case of `O=P(O)(O)CN1CCN(CP(=O)(O)O)CCN(CP(=O)(O)O)CC1` [N,N′,N″-tris(dihydroxyphosphorylmethyl)-1,4,7-triazacyclononane], the “effect on the resting cells” value [2] is reported as “no effect on the resting cells was observed”, the LD50 at 14 days [3] is reported as > 3000 µmol/kg and the “mice surviving for over 14 days” value [4] is reported as “Over 50%”. The “dose which inhibits mammalian cell replication in vitro” value [5] was 0.009 mM/L, the “difference in weight or rate of weight gain vs control group” value ([6]; 0.05 millimoles per kg IV on 10 days within 14 days, injection period and two-week post-injection period) was “no statistically significant difference” and the “differences in tissues upon microscopic examination vs control group” value ([6]; 0.05 millimoles per kg IV on 10 days, necropsy on 28th day) was “no differences”. For the same compound, the “differences in weights of major organs vs control group” value ([6]; 0.05 millimoles per kg IV on 10 days, sacrifice on 28th day) was “no differences observed”, the “ability of Fe(III) complexed to the chelator to support Fenton reactions (hydroxyl radical formation)” value [1] was “failed to show evidence of hydroxyl ion formation above background” and the “cardioprotection with regard to cardiac performance parameters” value ([7]; 0.032 mmole/kg intravenous) was “cardioprotective”. For the same compound, the “cardioprotection with regard to cardiac performance parameters” value ([7]; 0.096 mmole/kg intravenous) was “cardioprotective”, the cardioprotection ([7]; single IV dose of 0.032 mmole/kg administered up to 60-120 min prior to VOP-induced ischemia) was “significant cardioprotection” and the “effect on cardiac performance parameters prior to VOP-induced ischemia” value ([7]; unanesthetized rabbit) was “no affect”. The “cardioprotection (volume of infarcted myocardium vs. controls)” value [8] was “significant reduction”, the “volume of infarcted myocardium expressed as % of myocardial volume at risk” value ([8]; administration beginning after 15 minutes of LCAO) was 30.6% and the “infarcted myocardium as a % of volume at risk” value ([8]; administration initiated 10 minutes prior to the onset of ischemia) was 28.1%. For the same compound, the “effect on pre-ischemia cardiac performance parameters” value ([8]; rabbit) was “without affecting”, the “Infarct Volumes” value [9, 11] was 3.5 ± 3.7 percentage of whole hemispheric tissue and the “Motor Score: 1 Hour” value [9, 11] was 7.3 ± 1.3 points. For the same compound, the “Motor Score: 24 Hours” value [9, 11] was 5.9 ± 1.1 points, the “Motor Score: 48 Hours” value [9, 11] was 5.4 ± 1.9 points and the “Infarct Volumes” value [9, 12] was 6.2 ± 7.5 percentage of whole hemispheric tissue. The “Motor Score: 1 Hour” value [9, 12] was 6.9 ± 1.1 points, the “Motor Score: 24 Hours” value [9, 12] was 3.6 ± 2.9 points and the “Motor Score: 48 Hours” value [9, 12] was 3.0 ± 3.0 points. For the same compound, the “Infarct Volumes” value [9, 13] was 2.6 ± 2.1 percentage of whole hemispheric tissue, the “Motor Score: 1 Hour” value [9, 13] was 6.8 ± 1.0 points and the “Motor Score: 24 Hours” value [9, 13] was 4.3 ± 1.0 points. For the same compound, the “Motor Score: 48 Hours” value [9, 13] was 2.8 ± 2.1 points, the “Infarct Volumes” value [9, 14] was 4.63 ± 9.08 percentage of whole hemispheric tissue and the “Motor Score: 1 Hour” value ([9]; Set IV: single 0.032 mmoles/kg IV dose after 90 minutes of MCA occlusion, cell marked '2 hours:') was 7.43 ± 1.27 points. For the same compound, the “Motor Score: 24 Hours” value [9, 14] was 4.9 ± 2.04 points, the “Motor Score: 48 Hours” value [9, 14] was 3.7 ± 1.98 points and the “blood pressure, heart rate and temperature values compared with vehicle-treated animals” value ([9]; all treated groups) was “similar”. For the same compound, the “reduction in infarct volumes compared to the corresponding control group” value ([9]; all treated rats) was “robust”, the “effects on cardiac parameters following ischemia” value ([10]; 2.7 mM in the perfusing medium) was “no adverse effects” and the “effects on cardiac performance parameters prior to ischemia” value ([10]; 2.7 mM in the perfusing medium) was “no effects”. For the same compound, the “cardioprotection with regard to cardiac performance parameters following global ischemia” value ([10]; added to the perfusing medium, broad concentration range) was “significantly cardioprotective” and the “concentration of peak efficacy (cardioprotection)” value ([10]; in the perfusing medium) was 0.01 mM.

With `O=C(NCCO[N+](=O)[O-])c1cccnc1` [nicorandil, reference compound] the “cardioprotection (volume of infarcted myocardium vs. controls)” value [8] was “failed to provide cardioprotection”.
